Results as given in the CheMixHub drug solubility set.

Experiment: xn = mol fraction of the nth substance listed, in the solute-free solvent

S=c1[nH]ncs1 + CO + O
solubility (g/100 g solution)
Details | 278.15 K | 283.15 K | 288.15 K | 293.15 K | 298.15 K | 303.15 K | 308.15 K | 313.15 K | 318.15 K | 323.15 K
x2 = 0.1 | 0.5 | 0.691 | 0.906 | 1.21 | 1.6 | 2.03 | 2.55 | 3.35 | 4.36 | 5.36
x2 = 0.2 | 0.926 | 1.24 | 1.54 | 2.06 | 2.68 | 3.38 | 4.35 | 5.66 | 6.96 | 8.64
x2 = 0.3 | 1.39 | 1.97 | 2.65 | 3.39 | 4.42 | 5.59 | 7.12 | 9.03 | 11.2 | 13.9
x2 = 0.4 | 2.53 | 3.26 | 4.24 | 5.33 | 6.73 | 8.48 | 10.5 | 13.2 | 16.4 | 19.8
x2 = 0.5 | 3.89 | 4.96 | 6.04 | 7.5 | 9.43 | 11.5 | 13.7 | 16.8 | 20 | 23.9
x2 = 0.6 | 5.2 | 6.6 | 8.03 | 9.72 | 11.6 | 14 | 17 | 19.9 | 23.3 | 27.5
x2 = 0.7 | 6.84 | 8.43 | 10.2 | 12 | 14.1 | 16.4 | 19.3 | 22.6 | 26.2 | 29.6
x2 = 0.8 | 8.37 | 10.1 | 11.9 | 13.8 | 16 | 18.5 | 21.4 | 24.6 | 28.2 | 31.5
x2 = 0.9 | 10.1 | 11.9 | 13.7 | 15.8 | 18 | 20.5 | 23.4 | 26.6 | 30 | 33.2

c1ccc2[nH]c(-c3cscn3)nc2c1 + CCCO + O
solubility (g/100 g solution)
Details | 283.15 K | 288.15 K | 293.15 K | 298.15 K | 303.15 K | 308.15 K | 313.15 K | 318.15 K | 323.15 K
x2 = 0.03225 | 0.00325 | 0.00407 | 0.00514 | 0.00634 | 0.00789 | 0.00974 | 0.0118 | 0.0143 | 0.0173
x2 = 0.06974 | 0.0139 | 0.017 | 0.021 | 0.0263 | 0.0319 | 0.0383 | 0.0458 | 0.0545 | 0.0646
x2 = 0.1139 | 0.0334 | 0.0402 | 0.0487 | 0.0585 | 0.0703 | 0.0828 | 0.0976 | 0.116 | 0.136
x2 = 0.1666 | 0.0767 | 0.09 | 0.106 | 0.122 | 0.142 | 0.162 | 0.188 | 0.212 | 0.242
x2 = 0.2307 | 0.141 | 0.163 | 0.188 | 0.216 | 0.249 | 0.284 | 0.321 | 0.365 | 0.413
x2 = 0.3103 | 0.21 | 0.243 | 0.282 | 0.322 | 0.367 | 0.415 | 0.47 | 0.525 | 0.592
x2 = 0.4117 | 0.291 | 0.331 | 0.38 | 0.435 | 0.497 | 0.563 | 0.633 | 0.707 | 0.794
x2 = 0.5454 | 0.37 | 0.423 | 0.483 | 0.545 | 0.62 | 0.699 | 0.785 | 0.879 | 0.983
x2 = 0.7297 | 0.425 | 0.482 | 0.553 | 0.623 | 0.708 | 0.79 | 0.883 | 0.986 | 1.1
